We go through seven compounds from patent publication US20170210723A1, “MOLECULES HAVING PESTICIDAL UTILITY, AND INTERMEDIATES, COMPOSITIONS, AND PROCESSES, RELATED THERETO” (priority 2016, published 2017).

Each structure is given as a SMILES string.

What all share (assay type): in vivo
Series [1] relates to Cabbage Looper (Trichoplusia ni). As to the kind of experiment: Bioassays on CL, 128-well diet tray assay. Conditions: Trichoplusia ni, 168 h; 50 μg/cm^2 on artificial diet, second instar larvae, five to seven days; read-out: CL % Control (or Mortality) rating. The essentials: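 Test molecule at 50 μg/cm^2 applied to the artificial diet surface (acetone-water) and dried; one to five second-instar T. ni larvae per well, eight wells per treatment, held at 25° C., 14:10 light-dark for five to seven days. Percent mortality averaged over wells.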

Series [2] deals with Beet Armyworm (Spodoptera exigua). As to the kind of experiment: Bioassays on BAW, 128-well diet tray assay. Conditions: Spodoptera exigua, 168 h; 50 μg/cm^2 on artificial diet, second instar larvae, five to seven days; read-out: BAW % Control (or Mortality) rating.
Series [3] has as its system Green Peach Aphid (Myzus persicae). As to the kind of experiment: Bioassays on Green Peach Aphid, foliar spray on cabbage seedlings. Conditions: 72 h, 200 ppm spray on cabbage seedlings, three days, Abbott corrected % control, read-out: GPA % Control (or Mortality) rating. How it is done:
Cabbage seedlings grown in 3-inch pots, with 2-3 small (3-5 cm) true leaves, were used as test substrate. The seedlings were infested with 20-50 GPA (wingless adult and nymph stages) one day prior to chemical application. Four pots with individual seedlings were used for each treatment. Test molecules (2 mg) were dissolved in 2 mL of acetone/methanol (1:1) solvent, forming stock solutions of 1000 ppm test molecule. The stock solutions were diluted 5× with 0.025% Tween 20 in water to obtain the solution at 200 ppm test molecule. A hand-held aspirator-type sprayer was used for spraying a solution to both sides of […] leaves until runoff. Reference plants (solvent check) were sprayed with the diluent only containing 20% by volume of acetone/methanol (1:1) solvent. Treated plants were held in a holding room for three days at approximately 25° C. and ambient relative humidity (RH) prior to grading. Evaluation was conducted by counting the number of live aphids per plant under a microscope. Percent Control was measured by using Abbott's correction formula (W. S. Abbott, “A Method of Computing the Effectiveness of an Insecticide” J. Econ. Entomol. 18 (1925), pp. 265-267) as follows.
Corrected % Control=100*(X−Y)/X • where • X=No. of live aphids on solvent check plants and • Y=No. of live aphids on treated plants

Series [4] relates to Yellow Fever Mosquito (Aedes aegypti). Nature of the series: Bioassays on Yellow Fever Mosquito larvae, 96-well plate. The conditions noted are these: from 4000 ppm DMSO master plate, about 1 day-old larvae, 3 days. The gist of the method: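 Aedes aegypti larvae about 1 day old, in water with liver powder, exposed in 96-well plates to compounds from a 4000 ppm DMSO master solution diluted in 90:10 water:acetone. Plates covered and held at room temperature for 3 days, then each well scored for mortality; 6 replicate plates.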

As usually defined, the mortality is the share of the test organisms that died. Regarding `C[C@H](CSCC(F)(F)F)NC(=O)c1ccc(/C=C/C(c2cc(Cl)c(Cl)c(Cl)c2)C(F)(F)F)cc1C(F)(F)F` (stereo partly drawn) [F22, 4-((E)-4,4,4-trifluoro-3-(3,4,5-trichlorophenyl)but-1-en-1-yl)-N—((R)-1-((2,2,2-trifluoroethyl)thio)propan-2-yl)-2-(trifluoromethyl)benzamide], the mortality at 50 µg/cm2 in series [1] and in series [2] was 50 to 100% throughout. Also, in series [3], the mortality at 200 ppm was in the range of 80 to 100%. In series [4], the “YFM % Control (or Mortality) rating” value is “A (80-100)”.

On to `CS(=O)(=O)CC[C@@H](NC(=O)c1ccc(/C=C/C(c2cc(Cl)c(Cl)c(Cl)c2)C(F)(F)F)cc1Br)C(=O)NCC(F)(F)F` (stereo partly drawn) [F25, 2-bromo-N—((R)-4-(methylsulfonyl)-1-oxo-1-((2,2,2-trifluoroethyl)amino)butan-2-yl)-4-((E)-4,4,4-trifluoro-3-(3,4,5-trichlorophenyl)but-1-en-1-yl)benzamide], for which the mortality at 50 µg/cm2 in series [1] and in series [2] was 50 to 100% throughout. Moreover, in series [3], the mortality at 200 ppm lay in the range of 0 to 80%. In series [4], the “YFM % Control (or Mortality) rating” value is on record as “A (80-100)”.

For the compound `CS(=O)(=O)CC[C@@H](NC(=O)c1ccc(/C=C/C(c2cc(Cl)c(Cl)c(Cl)c2)C(F)(F)F)cc1C(F)(F)F)C(=O)NCC(F)(F)F` (stereo partly drawn) [F26, N—((R)-4-(Methylsulfonyl)-1-oxo-1-((2,2,2-trifluoroethyl)amino)butan-2-yl)-4-((E)-4,4,4-trifluoro-3-(3,4,5-trichlorophenyl)but-1-en-1-yl)-2-(trifluoromethyl)benzamide], the mortality at 50 µg/cm2 in series [1] and in series [2] was 50 to 100% each time. The mortality at 200 ppm in series [3] was 0 to 80%. In addition, the “YFM % Control (or Mortality) rating” value in series [4] is on record as “B (More than 0-Less than 80)”.

`C[C@H](CSCC(F)(F)F)NC(=O)c1ccc(/C=C/C(c2cc(Cl)c(F)c(Cl)c2)C(F)(F)F)cc1C(F)(F)F` (stereo partly drawn) [F35, 4-((E)-3-(3,5-Dichloro-4-fluorophenyl)-4,4,4-trifluorobut-1-en-1-yl)-N—((R)-1-((2,2,2-trifluoroethyl)thio)propan-2-yl)-2-(trifluoromethyl)benzamide]: the mortality at 50 µg/cm2 in series [1] and in series [2] was 50 to 100% throughout. The mortality at 200 ppm in series [3] was 0 to 80%. The “YFM % Control (or Mortality) rating” value in series [4] was “A (80-100)”.

As for `C[C@H](CS(=O)(=O)CC(F)(F)F)NC(=O)c1ccc(/C=C/C(c2cc(Br)c(Cl)c(Br)c2)C(F)(F)F)cc1C(F)(F)F` (stereo partly drawn) [F59, 4-((E)-3-(3,5-Dibromo-4-chlorophenyl)-4,4,4-trifluorobut-1-en-1-yl)-N—((R)-1-((2,2,2-trifluoroethyl)sulfonyl)propan-2-yl)-2-(trifluoromethyl)benzamide], the mortality at 50 µg/cm2 in series [1] and in series [2] was 50 to 100% in each case. Besides, the mortality at 200 ppm in series [3] was determined as 0%.

Take `C[C@H](CS(=O)(=O)CC(F)(F)F)NC(=O)c1ccc(/C=C/C(c2cc(Cl)cc(Cl)c2)C(C)(F)F)cc1Cl` (stereo partly drawn) [F132, 2-Chloro-4-((E)-3-(3,5-dichlorophenyl)-4,4-difluoropent-1-en-1-yl)-N—((R)-1-((2,2,2-trifluoroethyl)sulfonyl)propan-2-yl)benzamide]: the mortality at 50 µg/cm2 in series [1] and in series [2] was 50 to 100% in each case. The “YFM % Control (or Mortality) rating” value in series [4] is “B (More than 0-Less than 80)”.

In the case of `C[C@H](CS(=O)(=O)CC(F)(F)F)NC(=O)c1ccc(/C=C/C(c2cc(Cl)cc(Cl)c2)C(C)(F)F)cc1C(F)(F)F` (stereo partly drawn) [F134, 4-((E)-3-(3,5-Dichlorophenyl)-4,4-difluoropent-1-en-1-yl)-N—((R)-1-((2,2,2-trifluoroethyl)sulfonyl)propan-2-yl)-2-(trifluoromethyl)benzamide], the mortality at 50 µg/cm2 in series [1] and in series [2] was 50 to 100% each time. Moreover, the “YFM % Control (or Mortality) rating” value in series [4] is “A (80-100)”.
